Source: ChEMBL document CHEMBL3885861, “Open TG-GATES”

Species on record: Rattus norvegicus
Assay: Open TG-GATES - Regimen: Single
Format: toxicity, organism-based, Sprague-Dawley
Design: regimen Single, gender Male, age 6 weeks
Conditions: in vivo, po, 1000 mg/kg, route gavage, dose level High; for APTT / Bas / Eos / Fbg / Hb / Ht / Lym / MCH / MCHC / MCV / Mono / Neu / PT / Plat / RBC / Ret / WBC: tissue Blood; for KIDNEY_L / KIDNEY_R / KIDNEY_TOTAL: tissue Kidney; for LIVER: tissue Liver

Work on `COc1cc([C@@H]2c3cc4c(cc3[C@@H](O[C@@H]3O[C@@H]5CO[C@@H](C)O[C@H]5[C@H](O)[C@H]3O)[C@H]3COC(=O)[C@H]23)OCO4)cc(OC)c1O` [ETOPOSIDE] yielded a gamma-GTP (6 h, tissue Plasma) of 1 IU/L, a TERMINAL_BW (9 h) of 193.9 g and an APTT (9 h) of 17.2 s. The Bas (9 h) was 0%, the Eos (9 h) was 0.6% and the Fbg (9 h) was 201 mg/dL. It also gave a Hb (9 h) of 13.8 g/dL, a Ht (9 h) of 41.4% and a Lym (9 h) of 86.4%. The MCH (9 h) was 21.9 pg, the MCHC (9 h) was 33.4% and the MCV (9 h) was 65.7 fL. For the same molecule, the Mono (9 h) was 3.8%, the Neu (9 h) was 9.2% and the PT (9 h) was 11.3 s. It also gave a Plat (9 h) of 117 x10_4/uL, an RBC (9 h) of 630.4 x10_4/ul and a Ret (9 h) of 8.4%. For the same molecule, the WBC (9 h) was 65.4 x10_2/uL, the KIDNEY_L (9 h) was 0.9 g and the KIDNEY_R (9 h) was 0.9 g. The KIDNEY_TOTAL (9 h) was 1.8 g, the LIVER (9 h) was 8.3 g and the ALP (9 h, tissue Plasma) was 794 IU/L. The ALT (9 h, tissue Plasma) was 29.4 IU/L, the AST (9 h, tissue Plasma) was 63.4 IU/L and the BUN (9 h, tissue Plasma) was 13.2 mg/dL. It also gave a CRE (9 h, tissue Plasma) of 0.5 mg/dL, a Ca (9 h, tissue Plasma) of 10.6 mg/dL and a Cl (9 h, tissue Plasma) of 105.4 meq/L. It also gave a DBIL (9 h, tissue Plasma) of 0.022 mg/dL, a GLC (9 h, tissue Plasma) of 212.6 mg/dL and an IP (9 h, tissue Plasma) of 10.1 mg/dL. For the same molecule, the K (9 h, tissue Plasma) was 4.7 meq/L, the LDH (9 h, tissue Plasma) was 81.4 IU/L and the Na (9 h, tissue Plasma) was 142.2 meq/L. The PL (9 h, tissue Plasma) was 124.6 mg/dL, the RALB (9 h, tissue Plasma) was 3.5 g/dL and the TBIL (9 h, tissue Plasma) was 0.4 mg/dL. For the same molecule, the TC (9 h, tissue Plasma) was 67.6 mg/dL, the TG (9 h, tissue Plasma) was 26.4 mg/dL and the TP (9 h, tissue Plasma) was 5.4 g/dL. For the same molecule, the gamma-GTP (9 h, tissue Plasma) was 1.8 IU/L, the TERMINAL_BW (24 h) was 205.7 g and the APTT (24 h) was 16.4 s. The Bas (24 h) was 0%, the Eos (24 h) was 1% and the Fbg (24 h) was 207 mg/dL. The Hb (24 h) was 13.6 g/dL, the Ht (24 h) was 40.4% and the Lym (24 h) was 82.6%. It also gave an MCH (24 h) of 21.5 pg, an MCHC (24 h) of 33.6% and an MCV (24 h) of 63.9 fL. The Mono (24 h) was 9%, the Neu (24 h) was 7.4% and the PT (24 h) was 11.9 s. It also gave a Plat (24 h) of 111.5 x10_4/uL, an RBC (24 h) of 634 x10_4/ul and a Ret (24 h) of 6.1%. For the same molecule, the WBC (24 h) was 56.3 x10_2/uL, the KIDNEY_L (24 h) was 1 g and the KIDNEY_R (24 h) was 1 g. The KIDNEY_TOTAL (24 h) was 1.9 g, the LIVER (24 h) was 8.8 g and the ALP (24 h, tissue Plasma) was 979.6 IU/L. It also gave an ALT (24 h, tissue Plasma) of 32 IU/L, an AST (24 h, tissue Plasma) of 66.6 IU/L and a CRE (24 h, tissue Plasma) of 0.5 mg/dL. The Ca (24 h, tissue Plasma) was 10.9 mg/dL, the Cl (24 h, tissue Plasma) was 104.8 meq/L and the DBIL (24 h, tissue Plasma) was 0.01 mg/dL. It also gave a GLC (24 h, tissue Plasma) of 182.8 mg/dL, an IP (24 h, tissue Plasma) of 9.2 mg/dL and a K (24 h, tissue Plasma) of 5 meq/L. The LDH (24 h, tissue Plasma) was 103.4 IU/L, the Na (24 h, tissue Plasma) was 140.2 meq/L and the PL (24 h, tissue Plasma) was 136.6 mg/dL. It also gave an RALB (24 h, tissue Plasma) of 3.5 g/dL, a TBIL (24 h, tissue Plasma) of 0.3 mg/dL and a TC (24 h, tissue Plasma) of 81 mg/dL. For the same molecule, the TG (24 h, tissue Plasma) was 47.6 mg/dL, the TP (24 h, tissue Plasma) was 5.6 g/dL and the gamma-GTP (24 h, tissue Plasma) was 1.6 IU/L.
